# Results reported in patent publication US20120076742A1, “Topical drug delivery system with dual carriers” (priority 2010, published 2012).
# Tests used:
# [1] = tested on: Staph aureus, MRSA, Klebsiella pneumoniae, E. coli, Proteus vulgaris, Pseudomonas aeruginosa, Enterobacter cloacae, Acinetobacter lwoffi, Acinetobacter …; assay: In-vitro Petri dish comparison of Lots and control antibiotics (FIGS. 16-36); assay type: cell-based; conditions: identical size drops (diameters of ZOA); FIGS. 16-25
# HL-60 cells = conditions: cited from earlier work; for amount at which desired cellular responses occurred: priming experiments
# [2] = tested on: mouse embryonic stem cells and embryoid bodies; conditions: cited from earlier work
# MRSA = conditions: IV, 8 days following admission
# Protocol: In this embodiment, the additional ingredient to hasten a third therapeutic tissue healing effect was added. This embodiment used vitamin D in a small but medically efficacious amount.
# [3] = Study I: vancomycin peaks and troughs in patient; assay type: in vivo, human; conditions: 1.5 g BID, Q12, seven doses
# Protocol: Fri 2/5: Detection of a Strep-A strain, confirmed by culture study. Shifted from gentamycin to vancomycin 1.5 g BID, Q12. Patient was kept on this dosing regimen until 2/8 (date of discharge from hospital).
# Mon 2/8: Patient received the last of seven doses of vancomycin. Throughout all of this their peaks (within 1 hour of receiving vancomycin) and troughs (before receiving vancomycin) were normal (ranges not noted here). Patient was discharged from the hospital on this date.
compound,measurement,setting,value
CO[C@@]1(NC(=O)Cc2cccs2)C(=O)N2C(C(=O)O)=C(COC(N)=O)CS[C@@H]21 [Cefoxicillin],zones of inhibition of control active agents compared with the formulations of the invention,[1],considerably reduced zones of inhibition
"C[S+](C)[O-] [DMSO, dimethyl sulfoxide]",amount at which desired cellular responses occurred,HL-60 cells,less than 2%
same,subsequent retinoid-induced TGM2 expression,HL-60 cells; priming of the cells by pretreatment,increases
same,effect on epigenetic profiles,[2],upregulation of mRNA and protein expression
CC[C@H]1OC(=O)[C@H](C)[C@@H](O[C@H]2C[C@@](C)(OC)[C@@H](O)[C@H](C)O2)[C@H](C)[C@@H](O[C@@H]2O[C@H](C)C[C@H](N(C)C)[C@H]2O)[C@](C)(O)C[C@@H](C)C(=O)[C@H](C)[C@@H](O)[C@]1(C)O [Erythromycin],zones of inhibition of control active agents compared with the formulations of the invention,[1],considerably reduced zones of inhibition
CN[C@H](CC(C)C)C(=O)N[C@H]1C(=O)N[C@@H](CC(N)=O)C(=O)N[C@H]2C(=O)N[C@H]3C(=O)N[C@H](C(=O)N[C@H](C(=O)O)c4cc(O)cc(O)c4-c4cc3ccc4O)[C@H](O)c3ccc(c(Cl)c3)Oc3cc2cc(c3O[C@@H]2O[C@H](CO)[C@@H](O)[C@H](O)[C@H]2O[C@H]2C[C@](C)(N)[C@H](O)[C@H](C)O2)Oc2ccc(cc2Cl)[C@H]1O [Vancomycin],zones of inhibition of control active agents compared with the formulations of the invention,[1],considerably reduced zones of inhibition
same,patient response to treatment,MRSA,did not respond
same,peaks (within 1 hour of receiving) and troughs (before receiving),[3],normal
vitamin D,amount at which desired cellular responses occurred,HL-60 cells,about 100 nM
